These results are taken from ChEMBL document CHEMBL4831551, “Novel Heteroaromatic Carboxamides as Plasma Kallikrein Inhibitors for Treating Diabetic Complications, Ocular Diseases, and Edema-Associated Diseases” (ACS Med Chem Lett, 2021).

The target of this assay is Plasma kallikrein (Homo sapiens, UniProt P03952). Kind of assay: Inhibition of kallikrein (unknown origin) using H-Pro-Phe-Arg-AMC as substrate incubated for 1 hr by fluorescence based analysis.
Plasma kallikrein, sequence (P03952 20-390 limits assumed): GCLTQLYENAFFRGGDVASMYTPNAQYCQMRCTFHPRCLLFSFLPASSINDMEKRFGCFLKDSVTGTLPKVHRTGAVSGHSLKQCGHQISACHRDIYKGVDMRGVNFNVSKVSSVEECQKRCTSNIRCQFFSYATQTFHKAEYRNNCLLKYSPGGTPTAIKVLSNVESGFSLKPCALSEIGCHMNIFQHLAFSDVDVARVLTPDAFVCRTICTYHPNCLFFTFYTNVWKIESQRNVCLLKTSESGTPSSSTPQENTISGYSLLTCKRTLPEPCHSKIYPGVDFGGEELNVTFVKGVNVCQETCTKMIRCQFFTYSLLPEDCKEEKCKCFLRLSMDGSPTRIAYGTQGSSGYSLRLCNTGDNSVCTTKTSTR
Plasma kallikrein, sequence (P03952 391-638 limits assumed): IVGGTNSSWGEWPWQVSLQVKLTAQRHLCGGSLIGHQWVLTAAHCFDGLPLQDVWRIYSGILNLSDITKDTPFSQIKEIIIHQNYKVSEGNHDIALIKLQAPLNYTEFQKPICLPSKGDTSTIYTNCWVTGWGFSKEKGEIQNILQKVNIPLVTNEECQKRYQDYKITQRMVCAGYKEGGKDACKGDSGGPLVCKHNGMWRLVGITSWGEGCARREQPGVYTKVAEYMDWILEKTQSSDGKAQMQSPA
Molecule `Cc1[nH]nc2c1CC[C@H]2NC(=O)c1cn(Cc2ccc(N3CC4(CC4)C3)nc2C(F)F)cn1` yielded an IC50 of 0.5 nM.
The value for `Cc1[nH]nc2c1CC[C@H]2NC(=O)c1cnn(Cc2ccc(N3CC4C(C3)C4(F)F)nc2C(F)F)c1` (stereo partly specified) was 0.8 nM; that for `Cc1[nH]nc2c1CC[C@H]2NC(=O)c1cnn(Cc2ccc(N3CC4CC4C3)nc2C(F)F)c1` (stereo partly specified) was 0.8 nM.
With `Cc1[nH]nc2c1CC[C@H]2NC(=O)c1cn(Cc2ccc(N3CC4CC4C3)nc2C(F)F)cn1` (stereo partly specified), 0.7 nM corresponded to half-maximal inhibition (IC50).
In the case of `Cc1[nH]nc2c1CC[C@H]2NC(=O)c1cn(Cc2ccc(N3CC4C(C3)C4(F)F)nc2C(F)F)cn1` (stereo partly specified), the midpoint of inhibition, the IC50, lay at 0.6 nM.
Under `Cc1[nH]nc2c1CC[C@H]2NC(=O)c1cn(Cc2ccc(N3CC4(CC4)C3)nc2C(F)F)nn1` stands 0.5 nM.

What is called IC50 is the concentration needed to halve the response being measured. Read a high IC50 as a need for much substance.
